In US8569336B2, “Compounds for the treatment of inflammatory disorders” (priority 2008, dated 2013):
Read-outs that look alike come from different tables or passages of the source.

Legend:
[1] = biological target: T1, purified catalytic domain of recombinant human TACE (rhTACEc) (Homo sapiens, UniProt P78536, N452Q/S266A); assay: TACE kinetic assay: cleavage of internally quenched peptide substrate TNF-FRET 2 (Ki); assay type: biochemical; details: TNF-FRET 2 substrate
T1 construct: 6xHis (C); made in house; host or cells: baculovirus/Hi5 insect cells
T1 sequence (P78536 215-477 S266A/N452Q): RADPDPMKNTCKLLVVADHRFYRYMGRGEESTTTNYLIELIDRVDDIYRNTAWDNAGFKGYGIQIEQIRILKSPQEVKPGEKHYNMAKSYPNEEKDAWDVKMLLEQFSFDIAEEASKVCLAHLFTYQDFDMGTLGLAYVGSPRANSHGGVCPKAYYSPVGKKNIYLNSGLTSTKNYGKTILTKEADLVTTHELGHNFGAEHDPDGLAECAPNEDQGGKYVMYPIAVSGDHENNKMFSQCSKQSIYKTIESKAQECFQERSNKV

[2] = system: TNF-α production from human whole blood; assay: Inhibition of TNF-α production from human whole blood (hWBA), LPS stimulated, ELISA; assay type: cell-based; details: Homo sapiens, human whole blood diluted 1:1, LPS stimulated, TNF-α by ELISA; read-out: hWBA (IC50)

Row | Compound | Ki ([1]; read-out: Ki) [nM] | IC50 [2] [nM] | Ki ([1]; Ki) [nM]
1 | CCN(CC)CCNC(=O)c1ccc2cc([C@]3(CN4Cc5ccc(OC)cc5C4=O)NC(=O)NC3=O)oc2c1 [Compound 2419] | 0.79 | 332 | –
2 | COc1ccc2c(c1)C(=O)N(C[C@@]1(c3cc4cc(/C=N/O)ccc4o3)NC(=O)NC1=O)C2 [Compound 2420] | 0.4 | 328 | –
3 | COc1ccc2c(c1)C(=O)N(C[C@@]1(c3cc4ccc(C(=O)N5CCNC(=O)C5)cc4o3)NC(=O)NC1=O)C2 [Compound 2422] | – | 519 | 0.68
4 | COc1ccc2c(c1)C(=O)N(C[C@@]1(c3cc4ccc(C(=O)N5CCN(C)CC5)cc4o3)NC(=O)NC1=O)C2 [Compound 2423] | 1.01 | 1090 | –
5 | COc1ccc2c(c1)C(=O)N(C[C@@]1(c3cc4cc(C(N)=O)c(C)cc4o3)NC(=O)NC1=O)C2 [Compound 2425] | 0.51 | 992 | –
6 | COc1ccc2c(c1)C(=O)N(C[C@@]1(c3cc4cc(C(=O)N5CCN(C)CC5)c(C)cc4o3)NC(=O)NC1=O)C2 [Compound 2427] | 1.42 | 560 | –
7 | COc1ccc2c(c1)C(=O)N(C[C@@]1(c3cc4cc(C(=O)NCCN(C)C)ccc4o3)NC(=O)NC1=O)C2 [Compound 2428] | 0.75 | 115 | –
8 | COc1ccc2c(c1)C(=O)N(C[C@@]1(c3cc4c(-c5cccc(C#N)c5)nccc4o3)NC(=O)NC1=O)C2 [Compound 2430] | 0.72 | 10000 | –
9 | COc1ccc2c(c1)C(=O)N(C[C@@]1(c3cc4cc(-c5cccc(C#N)c5)ncc4o3)NC(=O)NC1=O)C2 [Compound 2432] | 0.92 | 1720 | –
10 | COc1ccc2c(c1)C(=O)N(C[C@@]1(c3cc4cc(C(C)=O)cnc4o3)NC(=O)NC1=O)C2 [Compound 2433] | 0.731 | 712 | –
11 | CCOC(=O)c1c(O)nc(C)c2cc([C@]3(CN4Cc5ccc(OC)cc5C4=O)NC(=O)NC3=O)oc12 [Compound 2434] | 1.32 | 174 | –
12 | COc1ccc2c(c1)C(=O)N(C[C@@]1(c3cc4c(C)nc(O)c(C(N)=O)c4o3)NC(=O)NC1=O)C2 [Compound 2435] | 1.14 | 504 | –
13 | COc1ccc2c(c1)C(=O)N(C[C@@]1(c3cc4c(C)nc(O)c(C(=O)O)c4o3)NC(=O)NC1=O)C2 [Compound 2436] | – | 2390 | 2.41
14 | COc1ccc2c(c1)C(=O)N(C[C@@]1(c3cc4c(C)ncc(C(=O)O)c4o3)NC(=O)NC1=O)C2 [Compound 2446] | 2.26 | 1600 | –
15 | CNC(=O)c1cnc(C)c2cc([C@]3(CN4Cc5ccc(OC)cc5C4=O)NC(=O)NC3=O)oc12 [Compound 2447] | 0.54 | 554 | –
16 | COc1ccc2c(c1)C(=O)N(C[C@@]1(c3cc4c(C(C)=O)nccc4o3)NC(=O)NC1=O)C2 [Compound 2448] | 0.8 | 839 | –
17 | COc1ccc2c(c1)C(=O)N(C[C@@]1(c3cc4cc(C=O)ccc4o3)NC(=O)NC1=O)C2 [Compound 2451] | 0.41 | 987 | –
18 | COc1ccc2c(c1)C(=O)N(C[C@@]1(c3cc4cc(C(=NO)N5CCCN(C)CC5)ccc4o3)NC(=O)NC1=O)C2 [Compound 2452] | 0.67 | 350 | –
19 | CCN1CCN(C(=NO)c2ccc3oc([C@]4(CN5Cc6ccc(OC)cc6C5=O)NC(=O)NC4=O)cc3c2)CC1 [Compound 2453] | 0.51 | 393 | –
20 | COc1ccc2c(c1)C(=O)N(C[C@@]1(c3cc4cc(C(=NO)N5CCOCC5)ccc4o3)NC(=O)NC1=O)C2 [Compound 2454] | 0.49 | 760 | –
21 | COc1ccc2c(c1)C(=O)N(C[C@@]1(c3ccc(-c4ccc(C(=NO)N5CCN(C)CC5)cc4)cc3)NC(=O)NC1=O)C2 [Compound 2456] | 0.76 | 1010 | –
22 | COC(=O)c1cnc2cc([C@]3(CN4Cc5ccc(OC)cc5C4=O)NC(=O)NC3=O)oc2c1 [Compound 2458] | 0.518 | 841 | –
23 | COc1ccc2c(c1)C(=O)N(C[C@@]1(c3cc4ncc(C(N)=O)cc4o3)NC(=O)NC1=O)C2 [Compound 2459] | – | 173 | 0.367
24 | COc1ccc2c(c1)C(=O)N(C[C@@]1(c3cc4ncc(C(=O)NC5CC5)cc4o3)NC(=O)NC1=O)C2 [Compound 2460] | 0.556 | 321 | –
25 | COC(=O)c1ccc2oc([C@]3(CN4Cc5ccc(OC)cc5C4=O)NC(=O)NC3=O)cc2n1 [Compound 2463] | 0.13 | 339 | –

Row | Compound | Ki ([1]; read-out: Ki) [nM] | IC50 [2] [nM] | Ki ([1]; Ki) [nM]
26 | COc1ccc2c(c1)C(=O)N(C[C@@]1(c3cc4nc(C(=O)NC5CC5)ccc4o3)NC(=O)NC1=O)C2 [Compound 2464] | 0.115 | 367 | –
27 | COc1ccc2c(c1)C(=O)N(C[C@@]1(c3cc4nc(C(=O)NCCN(C)C)ccc4o3)NC(=O)NC1=O)C2 [Compound 2466] | 0.867 | 567 | –
28 | COCCNC(=O)c1cnc2cc([C@]3(CN4Cc5ccc(OC)cc5C4=O)NC(=O)NC3=O)oc2c1 [Compound 2467] | 0.72 | 657 | –
29 | CCN1CCN(C(=NO)c2cnc3cc([C@]4(CN5Cc6ccc(OC)cc6C5=O)NC(=O)NC4=O)oc3c2)CC1 [Compound 2468] | – | 342 | 1.44
30 | COc1ccc2c(c1)C(=O)N(C[C@@]1(c3cc4ncc(C(=NO)N5CCN(c6cnccn6)CC5)cc4o3)NC(=O)NC1=O)C2 [Compound 2469] | 0.59 | 546 | –
31 | COc1ccc2c(c1)C(=O)N(C[C@@]1(c3cc4nc(-c5cncc(C#N)c5)ccc4o3)NC(=O)NC1=O)C2 [Compound 2471] | 0.779 | 3660 | –
32 | COc1ccc2c(c1)C(=O)N(C[C@@]1(c3cc4cc(C#N)ccc4o3)NC(=O)NC1=O)C2 [Compound 2476] | 0.37 | 848 | –
33 | COc1ccc2c(c1)C(=O)N(C[C@@]1(c3ccc(C#N)cc3)NC(=O)NC1=O)C2 [Compound 2477] | 1.41 | 3480 | –
34 | COc1ccc2c(c1)C(=O)N(C[C@@]1(c3cc4cc(S(N)(=O)=O)ccc4o3)NC(=O)NC1=O)C2 [Compound 2478] | 0.35 | 600 | –
35 | COc1ccc2c(c1)C(=O)N(C[C@@]1(c3cc4cc(C)c(S(N)(=O)=O)cc4o3)NC(=O)NC1=O)C2 [Compound 2479] | 0.36 | 2080 | –
36 | COc1ccc2c(c1)C(=O)N(C[C@@]1(c3cc4cc(S(=O)(=O)NCCN(C)C)ccc4o3)NC(=O)NC1=O)C2 [Compound 2482] | 0.67 | 304 | –
37 | COc1ccc2c(c1)C(=O)N(C[C@@]1(c3cc4c(o3)CCN(CC(N)=O)C4)NC(=O)NC1=O)C2 [Compound 2483] | – | 252 | 0.7
38 | CCOC(=O)NCc1ccc2oc([C@]3(CN4Cc5ccc(OC)cc5C4=O)NC(=O)NC3=O)cc2c1 [Compound 2484] | – | 1690 | 0.49
39 | CCNC(=O)NCc1ccc2oc([C@]3(CN4Cc5ccc(OC)cc5C4=O)NC(=O)NC3=O)cc2c1 [Compound 2485] | 0.76 | 1990 | –
40 | COc1ccc2c(c1)C(=O)N(C[C@@]1(c3cc4cc(CNC(=O)N(C)C)ccc4o3)NC(=O)NC1=O)C2 [Compound 2486] | 0.49 | 1230 | –
41 | COc1ccc2c(c1)C(=O)N(C[C@@]1(c3cc4cc(/C(=N\O)N5CC[C@H](N(C)C)C5)ccc4o3)NC(=O)NC1=O)C2 [Compound 2488] | 0.8 | 321 | –
42 | O=C1NC(=O)[C@](CN2Cc3ccc(OCC4CC4)c(F)c3C2=O)(c2cc3cc4c(c(F)c3o2)C(=O)NC4)N1 [Compound 2493] | 0.49 | 349 | –
43 | O=C1NC(=O)[C@](CN2CCc3ccsc3C2=O)(c2cc3ncccc3o2)N1 [Compound 2494] | 1.25 | 2250 | –
44 | CN(C)C1CCN(c2ccc3oc(C4(CN5CCc6ccsc6C5=O)NC(=O)NC4=O)cc3n2)CC1 (centres unmarked) [Compound 2495] | 0.71 | 650 | –
45 | CCN1CCN(c2ccc3oc(C4(CN5CCc6ccsc6C5=O)NC(=O)NC4=O)cc3n2)CC1 (centres unmarked) [Compound 2496] | 0.66 | 314 | –
46 | COc1ccc2c(c1F)C(=O)N(C[C@@]1(c3cc4ccc5c(c4o3)CNC5=O)NC(=O)NC1=O)C2 [Compound 2498] | 1.21 | 166 | –
47 | COc1ccc2c(c1F)C(=O)N(C[C@@]1(c3cc4cc5c(c(F)c4o3)CNC5=O)NC(=O)NC1=O)C2 [Compound 2500] | 0.52 | 282 | –
48 | COc1ccc2c(c1)C(=O)N(C[C@@]1(c3cc4cc5c(cc4o3)[C@@H](NC(=O)OC(C)(C)C)CC5)NC(=O)NC1=O)C2 [Compound 2507] | 1.43 | 4160 | –
49 | COc1ccc2c(c1)C(=O)N(C[C@@]1(c3cc4cc5c(cc4o3)[C@@H](N)CC5)NC(=O)NC1=O)C2 [Compound 2508] | 0.52 | 1020 | –
